Results published in PubChem BioAssay AID1996.
In brackets after ≈: the same amount, converted by molar mass.

conditions: buffer; pH 7.4; 200.0 µM

Row | Structure (SMILES) | solubility kinetic [µg/mL]
1 | COc1cc(OC)c(C(=O)NCC2CCCO2)cc1OC (stereo not given) | > 44.3
2 | Nc1nonc1C(=O)NCCNC(=O)c1ccc(Cl)cc1 | > 46.5
3 | CCC(C)Nc1nc(N)c([N+](=O)[O-])c(NCCO)n1 (stereo not given) | 39.6 (≈ 147 µM)
4 | Cc1ccc(Nc2nc(=O)c3cccnc3s2)c(Br)c1 | 2.4 (≈ 6.89 µM)
5 | NS(=O)(=O)c1cccc(NC(=O)COC(=O)/C=C/c2nc3ccccc3s2)c1 | 22.8 (≈ 54.6 µM)
6 | Cc1cc(C)c(S(=O)(=O)NCCCn2ccnc2)cc1C | > 46.1
7 | CC1CC(C)CN(C(=O)COC(=O)/C=C/c2ccco2)C1 (stereo not given) | > 43.7
8 | Fc1cc(F)c2nc(N3CCCC3)sc2c1 | 9.4 (≈ 39.1 µM)
9 | CCN(Cc1ccncc1)C(=O)C(CO)c1ccccc1 (stereo not given) | > 42.7
10 | CC(=O)NCCc1nc2ccccc2n1CCOc1cccc(C)c1 | > 50.6
11 | O=C(COC(=O)C1CC2C=CC1C2)Nc1ccc([N+](=O)[O-])cc1 (stereo not given) | > 47.4
12 | O=C(CN1CCN(c2ccc(Cl)cc2[N+](=O)[O-])CC1)N1CCOCC1 | > 55.3
13 | O=[N+]([O-])c1cc(NCCO)c(N2CCCCCC2)c2nonc12 | 42.3 (≈ 132 µM)
14 | Cc1cc(NC(=O)Nc2cccc([N+](=O)[O-])c2)no1 | 2.2 (≈ 8.39 µM)
15 | CC(NC(=O)CN1CCN(c2ccc(Cl)cc2)CC1)c1ccccc1 (stereo not given) | 8.8 (≈ 24.6 µM)
16 | CSc1ccccc1C(=O)OCC(=O)N1CCCC1=O | > 44
17 | Cc1ccc2c(=O)c(CN3CCCCCC3)c(C)[nH]c2c1C | 40.6 (≈ 136 µM)
18 | C=CCOc1ccc(CNCC2CCCO2)cc1.Cl (stereo not given) | > 42.6
19 | O=C1COc2ccccc2N1Cc1c(F)cccc1Cl | 20 (≈ 68.6 µM)
20 | CCCC1Cc2nc(Cl)c(C#N)cc2CO1 (stereo not given) | > 35.5
21 | O=C1NC(=O)N(Cc2ccc(F)cc2)C(=O)/C1=C\c1ccoc1 | 46.6 (≈ 148 µM)
22 | CCc1ccc(NC(=S)NCc2ccccc2)cc1 | 27.4 (≈ 101 µM)
23 | O=C(/C=C/c1ccccc1)Oc1ccccc1C(=S)N1CCOCC1 | 18.9 (≈ 53.5 µM)
24 | CCOC(=O)c1csc(-c2sccc2Br)n1 | 18.7 (≈ 58.8 µM)

Row | Structure (SMILES) | solubility kinetic [µg/mL]
25 | Cc1csc(NC(=O)c2ccc(COc3ccccc3)o2)n1 | 3.3 (≈ 10.5 µM)
26 | Cc1cccc(OCC(=O)NCCNC(=O)c2cccnc2)c1 | > 47
27 | Cc1ccccc1OCC(=O)Nc1ccc2c(c1)n(C)c(=O)n2C | 46.2 (≈ 142 µM)
28 | Clc1cccc(CN2CCc3c([nH]c4ccccc34)C2)c1 | 8.2 (≈ 27.6 µM)
29 | Cl.O=C(CCN1CCOCC1)Nc1ccc(Cl)cc1 | > 45.8
30 | O=C(O)C1C2C=CC(C2)C1C(=O)NCc1ccccc1F (stereo not given) | > 43.4
31 | Cc1ccc(OCC(=O)N2CCCCC2C)c([N+](=O)[O-])n1 (stereo not given) | > 44
32 | O=C(O)CCCCCNC(=O)/C=C/c1ccco1 | 26.2 (≈ 104 µM)
33 | Cc1c(Cl)cccc1NC(=O)NCCCN1CCCC1=O | > 46.5
34 | CC(C)(C)c1cc(NC(=O)Nc2ccccc2)no1 | 4.1 (≈ 15.8 µM)
35 | COc1cccc(C=O)c1OCCN1C(=O)c2ccccc2C1=O | 42.6 (≈ 131 µM)
36 | COc1ccc(CNC(=S)Nc2ccc(F)c(Cl)c2)cc1 | 1.8 (≈ 5.54 µM)
37 | C#CC1(OC(=O)c2ccccc2)CC(C)N(C)CC1C.Cl (stereo not given) | > 46.2
38 | O=C(O)c1ccc(Nc2ccc([N+](=O)[O-])c3nonc23)cc1 | > 45
39 | CC1CCC(NC(=O)CN2C(=O)C3CC=CCC3C2=O)CC1 (stereo not given) | > 45.7
40 | CCCCN(C)C1CCN(C(=S)Nc2ccc(OC)cc2)CC1 | > 50.3
41 | O=C(NCCO)C(=O)Nc1cc2c3c(c1)CC(=O)N3CCC2 | > 45.5
42 | CCOC(=O)N1CCN(CC(=O)Nc2cc(OC)c(OC)cc2C#N)CC1 | 16.3 (≈ 43.3 µM)
43 | COc1ccc(CNC(=O)CN2C(=O)c3ccccc3C2=O)cc1 | 4.4 (≈ 13.6 µM)
44 | O=C(NCc1csc(-c2cccs2)n1)Nc1ccc(C(F)(F)F)cc1 | < 0.3
45 | Nc1cc(-c2ccccc2)n2c(n1)nc1ccccc12 | 5.7 (≈ 21.9 µM)
46 | CC(Cl)C(=O)c1c[nH]c2ccccc12 (stereo not given) | 21.4 (≈ 103 µM)
47 | COc1ccc(C(=O)NCc2ccc(C(=O)O)o2)cc1 | > 41.3
48 | CCOC(=O)N1CCN(Cc2nc3cc([N+](=O)[O-])ccc3n2C)CC1 | 50.7 (≈ 146 µM)

Row | Structure (SMILES) | solubility kinetic [µg/mL]
49 | COc1cccc(N2C(=O)/C(=C/c3ccc(C)o3)C(=O)NC2=S)c1 | > 51.4
50 | Cl.c1ccc2c(c1)nc(N1CCCCC1)c1ccccc12 | 1.8
51 | O=C(O)C1CCCN(S(=O)(=O)c2ccc(Br)s2)C1 (stereo not given) | 52.1 (≈ 147 µM)
52 | O=C(Nc1ccc(NS(=O)(=O)c2ccccc2)cc1)c1ccccc1Cl | 6.1 (≈ 15.8 µM)
53 | CCc1sc(C(=O)Nc2ccc(OC)c(S(=O)(=O)N3CCOCC3)c2)cc1C | 22.9 (≈ 53.9 µM)
54 | O=C(COC(=O)c1cc(Cl)nc(Cl)c1)Nc1ccc(Cl)c(S(=O)(=O)N2CCOCC2)c1 | 31.7 (≈ 62.3 µM)
55 | O=C(COC(=O)c1ccccc1)NC1CCCC1 | > 37.1
56 | Cc1ccc(C(O)P(=O)(OC(C)C)c2ccc(N(C)C)cc2)cc1 (stereo not given) | > 52.1
57 | O=C(NC1CCCCNC1=O)c1ccco1 (stereo not given) | > 33.3
58 | CCN(CC)c1c([N+](=O)[O-])c(=O)oc2ccccc12 | > 39.3
59 | O=C(NC1CCCCC1)c1cc([N+](=O)[O-])ccc1N1CCCC1 | 3.3 (≈ 10.4 µM)
60 | NC(=Nc1ccccc1)Nc1ccccc1 | 29.5 (≈ 140 µM)
61 | Cc1ccc(C)c(N2CCN(CCCc3ccccc3)CC2)c1 | 4.6 (≈ 14.9 µM)
62 | Cc1ccccc1NC(=S)NCc1ccc(F)cc1 | > 41.2
63 | Cc1ccccc1NC(=S)c1ccc2ccccc2n1 | < 0.3
64 | CC(NC(=O)Nc1ccc(F)cc1F)c1ccc2c(c1)OCO2 (stereo not given) | 2.4 (≈ 7.49 µM)
65 | O=C(CNC(=O)c1ccccc1F)NC1=NCCS1 | > 42.2
66 | Cc1cccc(OCCn2ccnc2)c1C | 22.7 (≈ 105 µM)
67 | Cc1ccc(S(=O)(=O)NCc2ccccc2)cc1 | 25.9 (≈ 99.1 µM)
68 | O=c1cc(COc2ccccc2[N+](=O)[O-])nc2sccn12 | 2.7 (≈ 8.9 µM)
69 | COc1ccccc1C(=O)NC(=O)Nc1cccc(Cl)c1 | < 0.3
70 | CCOC(=O)c1cn2ccc(C)cc2n1 | > 30.6
71 | CN(C(=O)CCN1C(=O)c2ccccc2C1=O)c1ccccc1 | 36.5 (≈ 118 µM)
72 | COc1ccc(C(C)NC(=O)CCc2ccccc2)cc1 (stereo not given) | 40.8 (≈ 144 µM)

Row | Structure (SMILES) | solubility kinetic [µg/mL]
73 | CCc1nc(Nc2ccccc2OC)c2oc3ccccc3c2n1.Cl | < 0.3
74 | Cc1ccc(S(=O)(=O)NCC(=O)NCC2CCCCC2)cc1C | > 50.8
75 | CN1CCN(c2nc(-c3ccccc3O)nc3ccccc23)CC1 | 1 (≈ 3.12 µM)
76 | COc1cc(OC)cc(C(=O)N[C@H](C(=O)OCC(=O)Nc2ccc3c(c2)OCO3)C(C)C)c1 | 21.2 (≈ 46.2 µM)
77 | COc1ccc(C(=O)Nc2cc3c4c(c2)CC(=O)N4CCC3)cc1 | > 48.4
78 | O=S(=O)(Cc1ccccc1)Nc1ccccc1Br | 40.6 (≈ 124 µM)
79 | Cc1cc(C(=O)Nc2cccc(C)c2C)c2ccccc2n1 | 40.1 (≈ 138 µM)
80 | CSCCOC(=O)C1=C(C)NC(=O)NC1c1ccc2c(c1)OCO2 (stereo not given) | > 52.6
81 | Cc1cccc(-c2noc(C(C)NC(=O)c3ccco3)n2)c1 (stereo not given) | 32.9 (≈ 111 µM)
82 | Cc1cccc(NS(=O)(=O)c2ccc3oc(=O)ccc3c2)c1C | 44.8 (≈ 136 µM)
83 | COc1cc(C(=O)NCCC(=O)NC(C)C)cc(OC)c1OC | > 48.7
84 | COc1ccccc1-c1cc(-c2ccccc2)nc(=O)[nH]1 | > 41.7
85 | CN(CC(=O)Nc1ccc(F)cc1)CC(=O)N1CCCCCC1 | 44.8 (≈ 139 µM)
86 | CN(CC(=O)Nc1ccc(F)c(F)c1F)C(=O)C1COc2ccccc2O1 (stereo not given) | > 57
87 | O=C(c1cccnc1)N1CCN(S(=O)(=O)c2cccs2)CC1 | > 50.6
88 | CC(C)c1ccccc1OCCCN1CCCC1.O=C(O)C(=O)O | 47
89 | COCCCNc1nc2nonc2nc1NCCSC | 37.1 (≈ 124 µM)
90 | Cc1cc(SCc2ccc(C(F)(F)F)cc2)nc(=O)[nH]1 | 7.5 (≈ 25 µM)
91 | COc1ccc(-c2csc(Nc3cccc(C)n3)n2)cc1C | 3.4 (≈ 10.9 µM)
92 | Cc1c(-c2ccncc2)oc2ccc(Br)cc2c1=O | < 0.7
93 | CCc1ccc(OS(=O)(=O)c2cn(C)c(=O)n(C)c2=O)cc1 | > 48.7
94 | O=C(NCC(=O)N1CC=C(c2ccccc2)CC1)c1ccco1 | > 46.6
95 | COC(=O)c1ccccc1N=Cc1c(O)[nH]c(=O)[nH]c1=O | 8.4 (≈ 29 µM)
96 | CC(OC(=O)CC1CC2CCC1C2)C(=O)Nc1ccc(C(N)=O)cc1 (stereo not given) | > 51.7

Row | Structure (SMILES) | solubility kinetic [µg/mL]
97 | Cc1ccc(NC(=O)OCCNC(=O)OC(C)C)cc1 | 33.1 (≈ 118 µM)
98 | CC1(C)CC(=O)C(=CN2CCOCC2)C(=O)C1 | > 35.6
99 | O=C(NCC1OCCc2ccccc21)C1COc2ccccc2O1 (stereo not given) | > 48.8
100 | O=C1SCCC1NC(=O)C(c1ccccc1)c1ccccc1 (stereo not given) | > 46.7
101 | CC12CCC(C(=O)NCc3ccccc3Cl)(OC1=O)C2(C)C (stereo not given) | > 48.3
102 | CC(C(=O)O)N1c2cccc3cccc(c23)S1(=O)=O (stereo not given) | > 41.6
103 | O=C(O)c1ccccc1NC(=O)C1C2CCC(O2)C1C(=O)O (stereo not given) | > 45.8
104 | COc1ccc(/C=C/C(=O)Nc2ccccc2F)cc1S(=O)(=O)N1CCOCC1 | 37.5 (≈ 89.2 µM)
105 | O=C(NCCCn1ccnc1)Nc1ccc2c(c1)OCO2 | > 43.2
106 | CCOC(=O)c1nc2c(ccc3ccccc32)cc1C | < 0.6
107 | Cc1ccc(NC(=O)COC(=O)C2CC(=O)N(Cc3ccccc3)C2)cc1F (stereo not given) | 46.8 (≈ 122 µM)
108 | O=[N+]([O-])c1ccc2nc(Cl)nc(-c3ccccc3)c2c1 | 4.8 (≈ 16.8 µM)
109 | CN(C)c1nc(Nc2ccc(Cl)c(Cl)c2)nc(N(C)C)n1 | < 0.1
110 | COc1c(Cl)ccc(Cl)c1C(=O)NC(=S)N1CCOCC1 | > 52.4
111 | O=C(Nc1ccc(Nc2ccccc2)cc1)c1ccc(Cl)cc1[N+](=O)[O-] | < 0.3
112 | CC1Oc2ccccc2N(CC(=O)Nc2ccc(F)cc2)C1=O (stereo not given) | 12.6 (≈ 40.1 µM)
113 | O=C(CCNC(=O)c1ccco1)Nc1ccccc1OC(F)F | > 48.6
114 | CC(=O)Nc1ccc2oc(-c3ccccc3)nc2c1 | 13.1 (≈ 51.9 µM)
115 | Cc1nc(NCCc2ccccc2)sc1C(=O)O | 38.7 (≈ 148 µM)
116 | CC(C)c1ccc(CNC(=O)CCc2ccccc2)cc1 | 31.2 (≈ 111 µM)
117 | CN(C(=O)/C=C/c1ccc2c(c1)OCO2)c1ccccc1 | 34.7 (≈ 123 µM)
118 | Cc1ccccc1OCC(=O)Nc1ccncc1 | > 36.3
119 | C=CCON1C(=O)C(=O)N(OCC=C)[C@H]2CCCC[C@H]21 | > 42
120 | CCCN1CCC(NC(=S)Nc2ccc(OC)c(OC)c2)CC1 | > 50.6
